The test system of data set [1] is human neonatal foreskin fibroblast (noncancer cells, NFF). Briefly: Cytotoxicity assay (Alamar blue), human neonatal foreskin fibroblast non-cancer cells NFF. The class given is cell-based. The settings on record: for IC50: read-out: IC50 NFF. How it is done: (§1) Human prostate adenocarcinoma cells (PC3) and human neonatal foreskin fibroblast (noncancer cells, NFF) were grown in media RPMI-1640 (Life Technologies, Grand Island, NY, USA) supplemented with 10% foetal bovine serum (FBS). Cells were grown under 5% CO2 in a humidified environment at 37°C. Fifty microlitres of media containing 500 cells were added to a 384 well microtitre plate (Perkin Elmer, Waltham, MA, USA, part number: 6007660) containing 0.2 μL of a compound. Final compound concentration range tested was 10 μM to 1 pM (final DMSO concentration of 0.4%). Each concentration in media was tested in triplicate and in two independent experiments. Cells and compounds were then incubated in 72 h at 37 °C, 5% CO2 and 80% humidity. Cell proliferation was measured with the addition of 10 μL of a 60% Alamar blue (Invitrogen, Carlsbad, CA, USA) solution in media to each well of the microtitre plate to give a final concentration of 10% Alamar blue. The plates were incubated at 37 °C, 5% CO2 and 80% humidity within 24 h. The fluorescence of each well was read at excitation 535 nm and emission 590 nm on the Perkin Elmer EnVision Multilabel Reader 2104. Eight-point concentration response curves were then analysed using non-linear regression and IC50 values determined by using GraphPad Prism 5 (GraphPad Software Inc., La Jolla, CA, USA). Paclitaxel and doxorubicin were used during each screening as positive control compounds.
On the technique in general: The colour change of resazurin is a common sign of viable cells or microbes.

On the set-up of data set [2]: method as in PMID 15547903. The settings on record: cited from earlier work.
The subject of data set [3] is Human prostate adenocarcinoma cells (PC3). Description: Cytotoxicity assay (Alamar blue), human prostate cancer cells PC3. Type of data set: cell-based. The settings on record: for IC50: Homo sapiens, read-out: IC50 PC3. How it is done: as §1
The nature of data set [4]: Auto-oxidation on storage, LC/MS analysis. The settings on record: dried compound stored at room temperature for a few months. The class given is physicochemical. An excerpt:
We noticed that the dried milnamides A (5) and E (1) changed from white powders to yellow powders when the compounds were stored at room temperature for a few months. […] As in the previous study, we are unable to determine if milnamides A (5) and E (1) are naturally occurring or produced by auto-oxidation.

For the next data set, the system named is advanced solid tumors. Details: method as in PMID 19096380. The settings on record: cited from earlier work.
Data set [5] has as its system murine leukemia L1210 cell line. On the set-up: method as in doi:10.1016/0040-4039(90)87015-R. The settings on record: cited from earlier work.
Data set [6] deals with human xenograft cancer models. Details: method as in PMID 19825803. The settings on record: many human xenograft cancer models; cited from earlier work.
Setting [7] is: NFF cells, 72 h incubation, Alamar blue, mean of two independent experiments in triplicate.
[8] abbreviates: PC-3, PC3 cells, 72 h incubation, Alamar blue, mean of two independent experiments in triplicate.

This is an account of results in paper PMC4071583, “Potent Cytotoxic Peptides from the Australian Marine Sponge Pipestela candelabra” (Marine Drugs, 2014).

Read-outs that look alike come from different tables or passages of the source.

What is called IC50 is the concentration that gives 50% inhibition. With `C/C(=C\[C@H](C(C)C)N(C)C(=O)[C@@H](NC(=O)[C@H]1N(C)Cc2c(c3ccccc3n2C)C1(C)C)C(C)(C)C)C(=O)O` [Compound 5, milnamide A], the IC50 was 70.6 nM in data set [1] (NFF, 72 h) and 11 nM in data set [3] (PC-3, 72 h). Moreover, in data set [2], the “auto-oxidation while standing in chloroform” value is listed as “auto-oxidized slowly to milamide D (7)”. Moreover, the “fold more potent than milnamide C (6)” value in data set [3] (PC3 cells, comparator 6) stood at 3 fold. Also, in data set [3] (PC3 cells, comparator 7), the “fold more potent than milnamide C (7)” value stood at 35 fold. Moreover, the “milnamide D (7) or G (3) formed by auto-oxidation (LC/MS)” value in data set [4] was 5%–10%.
Take `CN[C@H](C(=O)N[C@H](C(=O)N(C)[C@H](/C=C(\C)C(=O)O)C(C)C)C(C)(C)C)C(C)(C)c1ccccc1` [HTI-286]: the common toxicities observed result in the data set with advanced solid tumors was “neutropaenia, nausea, alopecia, and pain”. Besides, the objective responses result in the data set on advanced solid tumors (phase II trial halted) is on record as “no objective responses”.
For `C/C1=C\[C@@H](C)C[C@@H](C)OC(=O)[C@@H](C)NC(=O)[C@H](Cc2ccc(O)c(Cl)c2)N(C)C(=O)CNC(=O)[C@H](C)C1` [Compound 12, geodiamolide F], the IC50 in data set [1] (NFF, 72 h) is 708 nM; in data set [3] (PC-3, 72 h), 155 nM; in data set [5] it was 11.2 nM.
As for `CN[C@H](C(=O)N[C@H](C(=O)N(C)[C@H](/C=C(\C)C(=O)O)C(C)C)C(C)(C)C)C(C)(C)c1cn(C)c2ccccc12` [Compound 8, hemiasterlin], the IC50 in data set [1] (NFF, 72 h) amounted to 0.404 nM; in data set [3] (PC-3, 72 h) it was 0.0484 nM. In data set [3] (comparator 9), the “fold more cytotoxic than hemiasterlin A (9)” value is “six-fold”.
Regarding `COc1cccc2c1C(=O)c1c(O)c3c(c(O)c1C2=O)C[C@@](O)(C(=O)CO)C[C@@H]3O[C@H]1C[C@H](N)[C@H](O)[C@H](C)O1` [Doxorubicin, doxorubicin, reference compound], the IC50 in data set [1] (setting [7]) turned out to be 530 nM; in data set [3] (setting [8]), 359 nM.
`CC(=O)O[C@H]1C(=O)[C@@]2(C)[C@H]([C@H](OC(=O)c3ccccc3)[C@]3(O)C[C@H](OC(=O)[C@H](O)[C@@H](NC(=O)c4ccccc4)c4ccccc4)C(C)=C1C3(C)C)[C@]1(OC(C)=O)CO[C@@H]1C[C@@H]2O` [Taxol, Paclitaxel, reference compound]: the IC50 in data set [1] (setting [7]) was 3.94 nM; in data set [3] (setting [8]) it was 2.26 nM.
As to `CC(=CC(C(C)C)N(C)C(=O)C(NC(=O)C1N(C)Cc2[nH]c3ccccc3c2C1(C)C)C(C)(C)C)C(=O)O` (stereo not shown) [Compound 1, milnamide E], the IC50 in data set [1] (NFF, 72 h) came to 123 nM; in data set [3] (PC-3, 72 h), 34.2 nM. In addition, in data set [4], the “milnamide D (7) or G (3) formed by auto-oxidation (LC/MS)” value is given as 5%–10%.
Consider `C/C1=C\[C@@H](C)C[C@@H](C)OC(=O)[C@@H](C)NC(=O)[C@H](Cc2ccc(O)c(I)c2)N(C)C(=O)CNC(=O)[C@H](C)C1` [Compound 10, geodiamolide D], for which the IC50 in data set [1] (NFF, 72 h) was 99.1 nM; in data set [3] (PC-3, 72 h) it was 33.1 nM; in data set [5] it was 62.2 nM. For the same compound, the “fold more potent than geodiamolide E (11)” value in data set [3] (PC3 cells, comparator 11) turned out to be 4 fold. In addition, the “fold more active than geodiamolide F (12)” value in data set [3] (PC3 cells, comparator 12) turned out to be 5 fold.
The term inhibition denotes the relative decrease from the control value, in per cent. Turning to `CC(=CC(C(C)C)N(C)C(=O)C(NC(=O)C1[N+](C)=Cc2[nH]c3ccccc3c2C1(C)C)C(C)(C)C)C(=O)O` (stereo not shown) [Compound 3, milnamide G], the inhibition at 10 µM in data set [1] (NFF, read-out: % Inhibition NFF) was determined as 39%. Besides, the IC50 in data set [3] (PC-3, 72 h) was 2870 nM.
For `C/C(=C\[C@H](C(C)C)N(C)C(=O)[C@@H](NC(=O)[C@H]1[N+](C)=Cc2c(c3ccccc3n2C)C1(C)C)C(C)(C)C)C(=O)O` [Compound 7, milnamide D], the IC50 in data set [1] (NFF, 72 h) is 1190 nM; in data set [3] (PC-3, 72 h), 381 nM.
Turning to `C/C(=C\[C@H](C(C)C)N(C)C(=O)[C@@H](NC(=O)[C@H]1N(C)C(=O)c2c(c3ccccc3n2C)C1(C)C)C(C)(C)C)C(=O)O` [Compound 6, milnamide C], the IC50 was determined as 188 nM in data set [1] (NFF, 72 h) and 31.7 nM in data set [3] (PC-3, 72 h).
In the case of `CNC(C(=O)NC(C(=O)N(C)C(C=C(C)C(=O)O)C(C)C)C(C)(C)C)C(C)(C)c1cn(C(O)C(=O)NC(C(=O)N(C)C(C=C(C)C(=O)O)C(C)C)C(C)(C)C)c2ccccc12` (stereo not shown) [Compound 4, hemiasterlin D], the IC50 amounted to 8.16 nM in data set [1] (NFF, 72 h) and 2.2 nM in data set [3] (PC-3, 72 h).
The matching figures for `CC(=CC(C(C)C)N(C)C(=O)C(NC(=O)C1N(C)C(=O)c2[nH]c3ccccc3c2C1(C)C)C(C)(C)C)C(=O)O` (stereo not shown) [Compound 2, milnamide F]: 5650 nM and 2180 nM.
For `C/C(=C\[C@H](C(C)C)N(C)C(=O)[C@@H](NC(=O)[C@H]1CCCCN1C(C)C)C(C)(C)C)C(=O)O` [Compound E7974], the “in vivo antitumor efficacy” value in data set [6] is “strong in vivo antitumor efficacy”.
As for `C/C1=C\[C@@H](C)C[C@@H](C)OC(=O)[C@@H](C)NC(=O)[C@H](Cc2ccc(O)c(Br)c2)N(C)C(=O)CNC(=O)[C@H](C)C1` [Compound 11, geodiamolide E], the IC50 in data set [1] (NFF, 72 h) is 425 nM; in data set [3] (PC-3, 72 h), 118 nM; in data set [5] it was 24.2 nM.
